Where two headings read alike, the source gives them in different places.
Legend:
[1] = Dehydrating action: moisture absorption on standing at controlled relative humidity; assay type: physicochemical; conditions: for moisture content (%) by the Karl Fisher method: 25° C.
Source text: Anhydrous crystalline cyclotetrasaccharide; crystalline cyclotetrasaccharide, monohydrate; anhydrous amorphous cyclotetrasaccharide; and crystalline cyclotetrasaccharide, penta- or hexa-hydrate were experimented in detail on their dehydrating actions, particularly, moisture absorption abilities against saccharides and changes on standing. As a control, anhydrous crystalline α,α-trehalose, anhydrous amorphous α,α-trehalose, and crystalline α,α-trehalose, dihydrate, were used as saccharides. The experiments were as follows: […]

[2] = Dehydration and pulverization of plain yogurt by non-reducing saccharide; design: unit not given here
Protocol: The anhydrous crystalline cyclotetrasaccharide; crystalline cyclotetrasaccharide, monohydrate; and anhydrous amorphous cyclotetrasaccharide were respectively prepared by the methods in Examples A-1, A-2, and A-3. As the crystalline α,α-trehalose, dihydrate, a commercially available “TREHA®” commercialized by Hayashibara Shoji Inc., Okayama, Japan, was used. The anhydrous crystalline α,α-trehalose and the anhydrous amorphous α,α-trehalose used in this experiment were prepared from a commercialized crystalline α,α-trehalose, dihydrate, using the methods disclosed in Examples for Reference 1 and 3 in Japanese Patent Kokai No. 170,221/94. To four parts by weight of a plain yogurt with a moisture content of about 77% was added either of the above saccharides in an amount of 11 to 16 parts by weight. The resultant mixtures were respectively placed in vats, allowed to stand at 25° C. for 24 hours, and macroscopically observed their change on standing. The judgement was conducted in such a manner of sufficiently dehydrating the resulting mixtures to be solidified, subjected to a pulverizer for pulverization, and evaluated as “◯”, when the solids were easily pulverized; “Δ”, when the dehydration of the resulting mixtures was rather insufficient and the pulverization of solids was substantially difficult, though the resulting mixtures were solidified; and “x”, when the dehydration of the resulting mixtures was insufficient and could not be pulverized by a pulverizer.

[3] = system: α-isomaltosylglucosaccharide-forming enzyme; assay: Specificity of transfer acceptor (C9 enzyme); assay type: biochemical, Bacillus globisporus C9 strain; design: key: −: no saccharide-transferred product was detected through transferring reaction to acceptor; ±: a saccharide-transferred product was detected in an amount of less than one percent through transfer reaction to acceptor; +: a saccharide-transferred product was detected in an amount of at least one percent but less than ten percent through transferring reaction to acceptor; ++: a saccharide-transferred product was detected in an amount of at least ten percent through transferring reaction to acceptor; conditions: acceptor 1.6%, PINE-DEX #100 donor 4%, one unit/g donor, 30° C., pH 6.0, 24 hours
Protocol: (§1) A variety of saccharides were tested whether they could be used as transferring-acceptors for the α-isomaltosylglucosaccharide-forming enzyme. A solution of D-glucose, D-xylose, L-xylose, D-galactose, D-fructose, D-mannose, D-arabinose, D-fucose, L-sorbose, L-rhamnose, methyl-α-glucopyranoside, methyl-β-glucopyranoside, N-acetyl-glucosamine, sorbitol, α,α-trehalose, isomaltose, isomaltotriose, cellobiose, gentibiose, maltitol, lactose, sucrose, α-cyclodextrin, β-cyclodextrin, or γ-cyclodextrin was prepared. […] The reaction mixtures after the enzymatic reactions were analyzed on gas chromatography (abbreviated as “GLC” hereinafter) for monosaccharides and disaccharides as acceptors, and on HPLC for trisaccharides and higher saccharides as acceptors to confirm whether these saccharides could be used as their transfer acceptors. In the case of performing GLC, the following apparatuses and conditions were used: […] In the case of HPLC analysis, the apparatuses and conditions used were: HPLC apparatus, “CCPD” commercialized by Tosoh Corporation, Tokyo, Japan; column, “ODS-AQ-303” commercialized by YMC Co., Ltd., Tokyo, Japan; eluent, water at a flow rate of 0.5 ml/min; and detection, a differential refractometer.

[4] = system: α-isomaltosylglucosaccharide-forming enzyme; assay: Specificity of transfer acceptor (C11 enzyme); assay type: biochemical, Bacillus globisporus C11 strain; design: key: −: no saccharide-transferred product was detected through transferring reaction to acceptor; ±: a saccharide-transferred product was detected in an amount of less than one percent through transfer reaction to acceptor; +: a saccharide-transferred product was detected in an amount of at least one percent but less than ten percent through transferring reaction to acceptor; ++: a saccharide-transferred product was detected in an amount of at least ten percent through transferring reaction to acceptor; conditions: acceptor 1.6%, PINE-DEX #100 donor 4%, one unit/g donor, 30° C., pH 6.0, 24 hours
Protocol: as §1

Aspergillus niger = assay: Bacterial contamination of gelatinized starch (gyuhi); conditions: gyuhi with six parts by weight of saccharide, 25° C., open conditions
Protocol: The mixture was mixed with a mixer and further mixed to homogeneity with two parts by weight of a starch hydrolyzate, shaped, and roughly dried for two hours, while blowing 40° C. hot air to the contents, to obtain “gyuhi” (a rice paste with sugar).

[5] = relative humidity 75%, 3 days after treatment
[6] = relative humidity 75%, 0 days after treatment
[7] = relative humidity 75%, 1 day after treatment
[8] = relative humidity 75%, 2 days after treatment
[9] = relative humidity 75%, 7 days after treatment

OC[C@H]1O[C@@H]2OC[C@H]3O[C@H](O[C@@H]4[C@@H](O)[C@@H](OC[C@H]5O[C@H](O[C@H]([C@H]2O)[C@@H]1O)[C@H](O)[C@@H](O)[C@@H]5O)O[C@H](CO)[C@H]4O)[C@H](O)[C@@H](O)[C@@H]3O [Saccharide C, anhydrous amorphous cyclotetrasaccharide]
moisture content (%) by the Karl Fisher method ([1]; relative humidity 60%, 0 days after treatment, listed as C): 0.3%
moisture content (%) by the Karl Fisher method ([1]; relative humidity 60%, 1 day after treatment, listed as C): 13.7%
moisture content (%) by the Karl Fisher method ([1]; relative humidity 60%, 2 days after treatment, listed as C): 13.8%
moisture content (%) by the Karl Fisher method ([1]; relative humidity 60%, 3 days after treatment, listed as C): 13.9%
moisture content (%) by the Karl Fisher method ([1]; relative humidity 60%, 7 days after treatment, listed as C): 14.1%
moisture content (%) by the Karl Fisher method ([1]; relative humidity 75%, 0 days after treatment, listed as C): 0.3%
moisture content (%) by the Karl Fisher method ([1]; relative humidity 75%, 1 day after treatment, listed as C): 14.2%
moisture content (%) by the Karl Fisher method ([1]; relative humidity 75%, 2 days after treatment, listed as C): 13.6%
moisture content (%) by the Karl Fisher method ([1]; relative humidity 75%, 3 days after treatment, listed as C): 13.7%
moisture content (%) by the Karl Fisher method ([1]; relative humidity 75%, 7 days after treatment, listed as C): 13.7%
moisture absorption level, % of its weight ([1]; relative humidity of 60%, listed as anhydrous amorphous cyclotetrasaccharide): about 14%
Water content (before use) ([2]; listed as C): 0.3

OC[C@H]1O[C@H](O[C@H]2O[C@H](CO)[C@@H](O)[C@H](O)[C@H]2O)[C@H](O)[C@@H](O)[C@@H]1O [Saccharide E, anhydrous crystalline α,α-trehalose, reference compound]
moisture content (%) by the Karl Fisher method ([1]; relative humidity 75%, 0 days after treatment, listed as E): 0.3%
moisture content (%) by the Karl Fisher method ([1]; relative humidity 75%, 1 day after treatment, listed as E): 9.7%
moisture content (%) by the Karl Fisher method ([1]; relative humidity 75%, 2 days after treatment, listed as E): 9.6%
moisture content (%) by the Karl Fisher method [1, 5]: 9.8%
moisture content (%) by the Karl Fisher method ([1]; relative humidity 75%, 7 days after treatment, listed as E): 9.8%
Water content (before use) ([2]; listed as E): 0.3

OC[C@H]1O[C@H](O[C@H]2O[C@H](CO)[C@@H](O)[C@H](O)[C@H]2O)[C@H](O)[C@@H](O)[C@@H]1O [Saccharide F, anhydrous amorphous α,α-trehalose, reference compound]
moisture content (%) by the Karl Fisher method ([1]; relative humidity 75%, 0 days after treatment, listed as F): 0.8%
moisture content (%) by the Karl Fisher method ([1]; relative humidity 75%, 1 day after treatment, listed as F): 9.8%
moisture content (%) by the Karl Fisher method ([1]; relative humidity 75%, 2 days after treatment, listed as F): 9.7%
moisture content (%) by the Karl Fisher method ([1]; relative humidity 75%, 7 days after treatment, listed as F): 9.7%
Water content (before use) ([2]; listed as F): 0.8

O.O.OC[C@H]1O[C@H](O[C@H]2O[C@H](CO)[C@@H](O)[C@H](O)[C@H]2O)[C@H](O)[C@@H](O)[C@@H]1O [Saccharide G, crystalline α,α-trehalose, dihydrate, reference compound]
moisture content (%) by the Karl Fisher method [1, 6]: 9.7%
moisture content (%) by the Karl Fisher method [1, 7]: 9.7%
moisture content (%) by the Karl Fisher method [1, 8]: 9.7%
moisture content (%) by the Karl Fisher method [1, 5]: 9.8%
moisture content (%) by the Karl Fisher method [1, 9]: 9.8%
Water content (before use) [2]: 9.7

OC[C@H]1O[C@@](CO)(O[C@H]2O[C@H](CO)[C@@H](O)[C@H](O)[C@H]2O)[C@@H](O)[C@@H]1O [Sucrose, sucrose]
Product of saccharide transferring reaction, Enzyme of C9 strain [3]: ++ (a saccharide-transferred product was detected in an amount of at least ten percent through transferring reaction to acceptor)
Product of saccharide transferring reaction, Enzyme of C11 strain [4]: ++ (a saccharide-transferred product was detected in an amount of at least ten percent through transferring reaction to acceptor)

OC[C@H]1O[C@H](O[C@H]2O[C@H](CO)[C@@H](O)[C@H](O)[C@H]2O)[C@H](O)[C@@H](O)[C@@H]1O [α,α-Trehalose, α,α-trehalose, reference compound]
Product of saccharide transferring reaction, Enzyme of C9 strain [3]: ++ (a saccharide-transferred product was detected in an amount of at least ten percent through transferring reaction to acceptor)
moisture absorption level, % of its weight ([1]; relative humidity of 75%): ≤ 10%
Product of saccharide transferring reaction, Enzyme of C11 strain [4]: ++ (a saccharide-transferred product was detected in an amount of at least ten percent through transferring reaction to acceptor)

OC[C@H]1O[C@@H]2O[C@H]3[C@H](O)[C@@H](O)[C@@H](O[C@H]4[C@H](O)[C@@H](O)[C@@H](O[C@H]5[C@H](O)[C@@H](O)[C@@H](O[C@H]6[C@H](O)[C@@H](O)[C@@H](O[C@H]7[C@H](O)[C@@H](O)[C@@H](O[C@H]1[C@H](O)[C@H]2O)O[C@@H]7CO)O[C@@H]6CO)O[C@@H]5CO)O[C@@H]4CO)O[C@@H]3CO [α-Cyclodextrin, α-cyclodextrin]
Product of saccharide transferring reaction, Enzyme of C9 strain [3]: −
Product of saccharide transferring reaction, Enzyme of C11 strain [4]: −

OC[C@H]1O[C@@H]2O[C@H]3[C@H](O)[C@@H](O)[C@@H](O[C@H]4[C@H](O)[C@@H](O)[C@@H](O[C@H]5[C@H](O)[C@@H](O)[C@@H](O[C@H]6[C@H](O)[C@@H](O)[C@@H](O[C@H]7[C@H](O)[C@@H](O)[C@@H](O[C@H]8[C@H](O)[C@@H](O)[C@@H](O[C@H]1[C@H](O)[C@H]2O)O[C@@H]8CO)O[C@@H]7CO)O[C@@H]6CO)O[C@@H]5CO)O[C@@H]4CO)O[C@@H]3CO [β-Cyclodextrin, β-cyclodextrin]
Product of saccharide transferring reaction, Enzyme of C9 strain [3]: −
Product of saccharide transferring reaction, Enzyme of C11 strain [4]: −

OC[C@H]1O[C@@H]2O[C@H]3[C@H](O)[C@@H](O)[C@@H](O[C@H]4[C@H](O)[C@@H](O)[C@@H](O[C@H]5[C@H](O)[C@@H](O)[C@@H](O[C@H]6[C@H](O)[C@@H](O)[C@@H](O[C@H]7[C@H](O)[C@@H](O)[C@@H](O[C@H]8[C@H](O)[C@@H](O)[C@@H](O[C@H]9[C@H](O)[C@@H](O)[C@@H](O[C@H]1[C@H](O)[C@H]2O)O[C@@H]9CO)O[C@@H]8CO)O[C@@H]7CO)O[C@@H]6CO)O[C@@H]5CO)O[C@@H]4CO)O[C@@H]3CO [γ-Cyclodextrin, γ-cyclodextrin]
Product of saccharide transferring reaction, Enzyme of C9 strain [3]: −
Product of saccharide transferring reaction, Enzyme of C11 strain [4]: −

crystalline cyclotetrasaccharide, monohydrate [Saccharide B]
moisture content (%) by the Karl Fisher method ([1]; relative humidity 60%, 0 days after treatment): 2.7%
moisture content (%) by the Karl Fisher method ([1]; relative humidity 60%, 1 day after treatment): 2.7%
moisture content (%) by the Karl Fisher method ([1]; relative humidity 60%, 2 days after treatment): 2.8%
moisture content (%) by the Karl Fisher method ([1]; relative humidity 60%, 3 days after treatment): 2.8%
moisture content (%) by the Karl Fisher method ([1]; relative humidity 60%, 7 days after treatment): 2.9%
moisture content (%) by the Karl Fisher method [1, 6]: 2.7%
moisture content (%) by the Karl Fisher method [1, 7]: 14.0%
moisture content (%) by the Karl Fisher method [1, 8]: 14.0%
moisture content (%) by the Karl Fisher method [1, 5]: 14.1%
moisture content (%) by the Karl Fisher method [1, 9]: 14.1%
moisture absorption level, % of its weight ([1]; relative humidity of 75%): about 14%
Water content (before use) [2]: 2.7

crystalline cyclotetrasaccharide, penta- or hexa-hydrate [Saccharide D]
colonies of Aspergillus niger found in gyuhi, days on standing (Aspergillus niger): 15 days

From patent publication US7186701B2, “Dehydrating agent and method for dehydrating moist article using the agent and dehydrated article obtained by the method” (Kabushiki Kaisha Hayashibara Seibutsu Kagaku Kenkyujo, priority 2001, dated 2007)
